# Assay results reported in ChEMBL document CHEMBL1131038, “Derivatives of the triazoloquinazoline adenosine antagonist (CGS 15943) having high potency at the human A2B and A3 receptor subtypes” (J Med Chem, 1998).
# Key:
# Adenosine receptor A3 = biological target: T1, Adenosine receptor A3 (Homo sapiens, UniProt P0DMS8); experiment: biochemical
# T1 sequence (P0DMS8 whole entry): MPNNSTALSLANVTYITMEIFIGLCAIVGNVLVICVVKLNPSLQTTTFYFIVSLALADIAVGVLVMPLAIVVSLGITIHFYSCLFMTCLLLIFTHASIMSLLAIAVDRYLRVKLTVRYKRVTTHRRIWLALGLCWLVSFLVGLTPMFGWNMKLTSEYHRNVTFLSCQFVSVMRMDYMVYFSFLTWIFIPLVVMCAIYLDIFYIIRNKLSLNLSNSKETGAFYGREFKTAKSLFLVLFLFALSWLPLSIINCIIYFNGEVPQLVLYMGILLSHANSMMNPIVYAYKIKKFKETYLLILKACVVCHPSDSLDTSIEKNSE
# Description: Binding affinity at cloned human adenosine A3 receptor expressed in HEK293 cells was determined using [125I]AB-MECA as radioligand
# [1] = Ratio against rat A2A receptor and Human A3 receptor
# Adenosine receptor A1 = biological target: T2, Adenosine receptor A1 (Rattus norvegicus, UniProt P25099)
# T2 sequence (P25099 whole entry): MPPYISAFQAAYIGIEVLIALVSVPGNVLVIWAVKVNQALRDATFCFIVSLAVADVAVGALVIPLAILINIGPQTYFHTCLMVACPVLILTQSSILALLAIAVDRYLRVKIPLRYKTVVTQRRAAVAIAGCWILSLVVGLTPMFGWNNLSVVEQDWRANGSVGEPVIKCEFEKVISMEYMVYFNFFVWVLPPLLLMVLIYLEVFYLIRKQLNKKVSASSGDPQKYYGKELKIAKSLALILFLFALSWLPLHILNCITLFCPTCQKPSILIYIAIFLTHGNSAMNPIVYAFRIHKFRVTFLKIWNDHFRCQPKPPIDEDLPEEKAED
# Description: Binding affinity was determined in radioligand binding assay at rat brain adenosine A1 receptor vs [3H]R-PIA
# [2] = Ratio against rat A1 receptor and Human A3 receptor
# Adenosine receptor A2a = Adenosine receptor A2a (Rattus norvegicus, UniProt P30543); experiment: Binding affinity was determined in radioligand binding assay at rat striatal Adenosine A2A receptor vs [3H]-CGS- 21680
# [3] = biological target: T3, Adenosine receptor A2b (Homo sapiens) (UniProt P29275); experiment: Inhibition at 50 uM on cAMP production induced by 50 uM 5`-(N-ethylcarboxamido)adenosine in CHO cell line transfected with human Adenosine A2B receptor cDNA; assay type: cell-based
# T3 sequence (whole entry): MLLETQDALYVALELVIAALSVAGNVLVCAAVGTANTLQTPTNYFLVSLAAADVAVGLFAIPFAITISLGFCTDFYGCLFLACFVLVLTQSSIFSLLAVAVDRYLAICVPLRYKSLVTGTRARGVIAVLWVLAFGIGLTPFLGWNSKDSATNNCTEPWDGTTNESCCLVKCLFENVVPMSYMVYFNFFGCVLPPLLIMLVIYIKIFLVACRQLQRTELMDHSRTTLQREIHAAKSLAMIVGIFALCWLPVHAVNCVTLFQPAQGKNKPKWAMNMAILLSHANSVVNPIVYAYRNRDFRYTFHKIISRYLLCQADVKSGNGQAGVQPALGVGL
# Adenosine receptor A2b = biological target: T4, Adenosine receptor A2b (Homo sapiens, UniProt P29275); experiment: Inhibition of 50 uM 5`-(N-ethylcarboxamido)adenosine induced cAMP production in CHO cell line expressing human Adenosine A2B receptor; assay type: cell-based
# T4 sequence (P29275 whole entry): T3 sequence (whole entry)
# Chain of Adenosine receptor A2a (P30543 whole entry): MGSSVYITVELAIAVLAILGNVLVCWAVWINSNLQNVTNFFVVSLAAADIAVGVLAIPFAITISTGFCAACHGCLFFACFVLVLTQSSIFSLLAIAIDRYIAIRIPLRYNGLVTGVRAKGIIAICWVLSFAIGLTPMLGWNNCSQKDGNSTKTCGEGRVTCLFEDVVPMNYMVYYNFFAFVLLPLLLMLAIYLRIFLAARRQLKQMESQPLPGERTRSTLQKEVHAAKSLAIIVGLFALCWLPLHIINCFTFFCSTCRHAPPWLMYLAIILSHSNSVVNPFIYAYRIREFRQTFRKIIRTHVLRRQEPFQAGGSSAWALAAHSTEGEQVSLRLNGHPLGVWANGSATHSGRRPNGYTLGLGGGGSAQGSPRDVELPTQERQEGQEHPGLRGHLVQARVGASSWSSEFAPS
SMILES,Ki (Adenosine receptor A3) [nM],Selectivity ratio [1],Ki (Adenosine receptor A1) [nM],Selectivity ratio [2],Ki (Adenosine receptor A2a) [nM],inhibition [3] [%],IC50 (Adenosine receptor A2b) [nM]
COc1ccc(CC(=O)Nc2nc3ccc(Cl)cc3c3nc(-c4ccco4)nn23)cc1,14.4,1.9,30.2,2.1,28,–,–
CCCn1c(=O)n2nc(-c3ccco3)nc2c2cc(Cl)ccc21,–,–,–,–,–,0,–
CCCC(=O)Nc1nc2ccc(Cl)cc2c2nc(-c3ccco3)nn12,–,–,–,–,–,66,–
CCCCC(=O)Nc1nc2ccc(Cl)cc2c2nc(-c3ccco3)nn12,–,–,–,–,–,79,–
O=C(Nc1nc2ccc(Cl)cc2c2nc(-c3ccco3)nn12)C(c1ccccc1)c1ccccc1,0.586,21,129,220,12.1,–,–
O=C(Cc1ccc(I)cc1)Nc1nc2ccc(Cl)cc2c2nc(-c3ccco3)nn12,62.9,0.16,13.8,0.22,9.93,42,–
O=C(CCCCC(=O)OCc1ccccc1)Nc1nc2ccc(Cl)cc2c2nc(-c3ccco3)nn12,44.7,0.37,304,6.8,16.7,–,–
C[C@@H](C(=O)Nc1nc2ccc(Cl)cc2c2nc(-c3ccco3)nn12)c1ccccc1,0.468,–,37.5,–,20.1,–,–
O=C(Cc1cccc(Cl)c1)Nc1nc2ccc(Cl)cc2c2nc(-c3ccco3)nn12,32.1,0.29,43,1.3,9.43,45,–
C[C@@H](N)C(=O)Nc1nc2ccc(Cl)cc2c2nc(-c3ccco3)nn12,1140,0.026,193,0.17,29.7,–,–
CC(=O)Nc1nc2ccc(Cl)cc2c2nc(-c3ccco3)nn12,–,–,–,–,–,92,2650
COC(=O)CCCCCCC(=O)Nc1nc2ccc(Cl)cc2c2nc(-c3ccco3)nn12,59,0.13,46.6,0.79,7.43,–,–
CC(C)(C)OC(=O)Nc1nc2ccc(Cl)cc2c2nc(-c3ccco3)nn12,–,–,–,–,–,92,2410
CC(C)(C)OC(=O)NCCC(=O)Nc1nc2ccc(Cl)cc2c2nc(-c3ccco3)nn12,6.71,1.1,31,4.6,7.58,–,–
Nc1nc2ccc(Cl)cc2c2nc(-c3ccc(Br)o3)nn12,–,–,–,–,–,16,–
COC(=O)CCC(=O)Nc1nc2ccc(Cl)cc2c2nc(-c3ccco3)nn12,55.1,0.52,71.8,1.3,28.8,–,–
O=C(Cc1ccccc1)Nc1nc2ccc(Cl)cc2c2nc(-c3ccco3)nn12,–,–,52.7,–,10.3,71,–
O=C(Nc1nc2ccc(Cl)cc2c2nc(-c3ccco3)nn12)c1ccccc1,–,–,–,–,–,58,–
CC(C)(C)OC(=O)NCCCC(=O)Nc1nc2ccc(Cl)cc2c2nc(-c3ccco3)nn12,–,0.6,45.9,1.4,19.9,47,–
CC(C(=O)Nc1nc2ccc(Cl)cc2c2nc(-c3ccco3)nn12)(c1ccccc1)c1ccccc1,194,2.3,890,4.6,453,–,–
CCC(=O)Nc1nc2ccc(Cl)cc2c2nc(-c3ccco3)nn12,–,–,–,–,–,66,–

SMILES,Ki (Adenosine receptor A3) [nM],Selectivity ratio [1],Ki (Adenosine receptor A1) [nM],Selectivity ratio [2],Ki (Adenosine receptor A2a) [nM],inhibition [3] [%],IC50 (Adenosine receptor A2b) [nM]
C[C@@H](NC(=O)OC(C)(C)C)C(=O)Nc1nc2ccc(Cl)cc2c2nc(-c3ccco3)nn12,46.3,0.41,48.6,1,18.8,–,–
O=C(Nc1nc2ccc(Cl)cc2c2nc(-c3ccco3)nn12)c1cccc(I)c1,–,–,–,–,–,38,–
Clc1ccc2nc(NCc3ccccc3)n3nc(-c4ccco4)nc3c2c1,42.5,4.7,–,28,200,21,–
CC(C)(C)OC(=O)NCCCCCCC(=O)Nc1nc2ccc(Cl)cc2c2nc(-c3ccco3)nn12,53.7,0.21,38.2,0.71,11.1,–,–
O=C(Cc1ccccc1I)Nc1nc2ccc(Cl)cc2c2nc(-c3ccco3)nn12,> 10000,< 1,2300,< 1,17.2,–,–
Nc1nc2ccc(Cl)cc2c2nc(-c3ccco3)nn12 [CGS-15943],–,–,–,–,3.3,100,–
NCCCCCC(=O)Nc1nc2ccc(Cl)cc2c2nc(-c3ccco3)nn12,213,0.048,99.6,0.47,10.3,79,–
O=C(/C=C/c1ccccc1)Nc1nc2ccc(Cl)cc2c2nc(-c3ccco3)nn12,72.1,0.71,282,3.9,59.8,38,–
CC(NC(=O)OC(C)(C)C)C(=O)Nc1nc2ccc(Cl)cc2c2nc(-c3ccco3)nn12 (configuration not stated),82.9,0.08,54.7,0.66,6.65,–,–
NCCCCCCC(=O)Nc1nc2ccc(Cl)cc2c2nc(-c3ccco3)nn12,346,0.16,114,0.33,55.9,75,–
O=C(Cc1cccc(I)c1)Nc1nc2ccc(Cl)cc2c2nc(-c3ccco3)nn12,882,0.011,45.4,0.051,9.67,–,–
CC(C)(C)OC(=O)NCCCCC(=O)Nc1nc2ccc(Cl)cc2c2nc(-c3ccco3)nn12,22,0.17,30.1,1.4,3.64,–,–
O=C(CCc1ccccc1)Nc1nc2ccc(Cl)cc2c2nc(-c3ccco3)nn12,23.6,–,–,–,–,43,–
CC(C)(C)OC(=O)NCCCCCC(=O)Nc1nc2ccc(Cl)cc2c2nc(-c3ccco3)nn12,33.8,1,53.8,1.6,33.7,–,–
Nc1ccc(CC(=O)Nc2nc3ccc(Cl)cc3c3nc(-c4ccco4)nn23)cc1I,49.3,0.21,217,4.4,10.4,23,–
C[C@H](C(=O)Nc1nc2ccc(Cl)cc2c2nc(-c3ccco3)nn12)c1ccccc1,0.362,31,46.2,130,11.1,–,–
CCO/C(O)=C1\C(C)=NC(c2ccccc2)=C(C(=O)OCc2ccccc2)C1C#Cc1ccccc1 (configuration not stated),–,–,–,–,> 100,–,–
Oc1nc2ccc(Cl)cc2c2nc(-c3ccco3)nn12,–,–,–,–,–,0,–
CCO/C(O)=C1\C(C)=NC(c2ccccc2)=C(C(=O)OCc2ccc([N+](=O)[O-])cc2)C1C#Cc1ccccc1 (configuration not stated),–,–,> 100,–,> 100,–,–
C[C@H](N)C(=O)Nc1nc2ccc(Cl)cc2c2nc(-c3ccco3)nn12,1200,0.12,390,0.33,143,–,–
O=C(Nc1nc2ccc(Cl)cc2c2nc(-c3ccc(Br)o3)nn12)c1ccccc1,–,–,–,–,–,0,–
